Laboratory results taken from patent US20240000724A1, “Compositions and Methods for Treatment or Prevention of Oral Mucositis” (PATHWAYS BIOSCIENCE, LLC, priority 2015, published 2024).
“Also recorded” adds a separate entry of the source. Where two headings read alike, the source gives them in different places.

Key:
[1] = system: HepG2 cells; assay: Affymetrix PrimeView gene expression array of PB201-treated HepG2 cells; assay type: cell-based; details: Homo sapiens, 1.5 micrograms/mL, 18 hours
Protocol: As an example of the cell protective mechanisms induced by PB201 treatment, gene upregulation in cells treated with PB201 was examined. Briefly, cultured HepG2 liver cells were treated with PB201 at 1.5 micrograms/mL concentration for 18 hours, then total RNA was extracted from the HepG2 cells by using the RNeasy Total RNA Isolation Kit (QIAGEN Inc. Valencia, California, USA). The concentration of each sample was determined based on the absorbance at 260 nm (A260). The purity of each sample was determined based on the ratio of A260 to A280. A range of 1.9-2.1 was considered adequately pure. The integrity of Total RNA samples was verified by Agilent 2200 Tape Station. Total RNA (250 ng) was converted to double-stranded cDNA (ds-cDNA) by using the cDNA synthesis kit (Affymetrix). An oligo-dT primer containing a T7 RNA polymerase promoter was utilized. The ds-cDNA was then purified and recovered by using purification beads (Affymetrix). Next, in vitro transcription was performed to generate biotin-labeled cRNA using a RNA Transcript Labeling Kit (Affymetrix). Biotin-labeled cRNA was purified using an RNeasy affinity column (Qiagen).
To ensure optimal hybridization to the oligonucleotide array, the cRNA was fragmented. Fragmentation was performed such that the cRNA fragments are between 50-200 bases in length by incubating the cRNA at 94° C. for 35 min in a fragmentation buffer. The sample was then added to a hybridization solution containing 100 mM IVIES, 1 M Na+, and 20 mM EDTA in the presence of 0.01% Tween 20. The final concentration of the fragmented cRNA was […]. Hybridization was performed by incubating 200 uL of the sample to the Affymetrix GeneChip® PrimeView™ human gene expression array (Affymetrix Inc., Santa Clara, California, USA) at 45° C. for 16 hours using a GeneChip® Hybridization Oven 640 (Affymetrix).
After hybridization, the hybridization solutions were removed and the arrays were washed and stained with Streptavidin-phycoerythrin using a GeneChip® Fluidics Station 450 (Affymetrix). Arrays were read at a resolution of 2.5 to 3 microns using the GeneChip Scanner 3000 (Affymetrix). Each gene was represented by the use of −11 probes per transcript and many control probes. The Command Console GeneChip software program was used to determine the intensity of expression for all genes on the array. For this experiment, fold-induction of genes by PB201 treatment of HepG2 cells was calculated compared to the average intensity observed in control HepG2 cells in culture solution without any added stimulus such as PB201.

[2] = system: Nrf2 (ARE-driven luciferase gene expression); assay: ARE-driven luciferase promoter-reporter assay in stably transfected human cancer cell lines; assay type: cell-based
Protocol: As an example of the properties of PB201, cell lines were cultured which had been stably transfected with constructs of the luciferase gene. This luciferase gene was driven in its promoter region by copies of the ARE Nrf2-binding sequence, known as promoter-reporter constructs (Simmons, Fan, Yeoman, Wakefield and Ramabhadran, NRF2 Oxidative Stress Induced by Heavy Metals is Cell Type Dependent, Curr Chem Genomics 5, 1-12 (2011); Shukla, Huang, Simmons, Tice, Witt, Vanleer, Ramabhadran, Austin and Xia, Profiling environmental chemicals for activity in the antioxidant response element signaling pathway using a high throughput screening approach, Environ Health Perspect 120, 1150-1156 (2012)).
Briefly, the stably transfected cells of types HepG2 (human liver), AREc32 (human breast), MCF7 (human breast), A549 (human lung), 293T (human kidney), and A172 (human brain) were seeded at low density in 24-well plates and incubated at 37° C. with 10% CO2. After 24 h various concentrations of combinations of agents were added to the cells. After an additional 18 h of incubation, the cells were lysed in their wells with 100 μl of a lysing buffer that contains 3.5 mM sodium pyrophosphate to stabilize light output by luciferase. A 20 μl aliquot of cell lysate was added to a small test tube, placed in a BD Monolight 3010 luminometer for background luminescence, and then 50 μl of 1 mM luciferin was injected into the tube. Relative Light Units integrated for 10 sec were measured for each sample.

## O=C(CC(=O)c1ccccc1)c1ccccc1 [PB201, 1,3-diphenyl-1,3-propanedione]
[1]; vs control HepG2, read-out: Fold induction by PB201: AGPAT9
  fold induction at 1.5 µg/mL: 2.46
[1]; vs control HepG2, read-out: Fold induction by PB201: AKR1B10///AKR1B15
  fold induction at 1.5 µg/mL: 5.85
[1]; vs control HepG2, read-out: Fold induction by PB201: AKR1B15
  fold induction at 1.5 µg/mL: 4.1
[1]; vs control HepG2, read-out: Fold induction by PB201: AKR1C1
  fold induction at 1.5 µg/mL: 4.97
[1]; vs control HepG2, read-out: Fold induction by PB201: AKR1C2///LOC100653286
  fold induction at 1.5 µg/mL: 6.56
[1]; vs control HepG2, read-out: Fold induction by PB201: AQP3
  fold induction at 1.5 µg/mL: 3
[1]; vs control HepG2, read-out: Fold induction by PB201: BHMT2
  fold induction at 1.5 µg/mL: 3.8
[1]; vs control HepG2, read-out: Fold induction by PB201: CCPG1///DYX1C1-CCPG1
  fold induction at 1.5 µg/mL: 2.51
[1]; vs control HepG2, read-out: Fold induction by PB201: CYP4F3
  fold induction at 1.5 µg/mL: 2.46
[1]; vs control HepG2, read-out: Fold induction by PB201: CYP4F11
  fold induction at 1.5 µg/mL: 4.43
[1]; vs control HepG2, read-out: Fold induction by PB201: EID3
  fold induction at 1.5 µg/mL: 4.18
[1]; vs control HepG2, read-out: Fold induction by PB201: FOS
  fold induction at 1.5 µg/mL: 2.91
[1]; vs control HepG2, read-out: Fold induction by PB201: FTH1
  fold induction at 1.5 µg/mL: 2.62
[1]; vs control HepG2, read-out: Fold induction by PB201: GCLM
  fold induction at 1.5 µg/mL: 4.03
[1]; vs control HepG2, read-out: Fold induction by PB201: GLA
  fold induction at 1.5 µg/mL: 2.59
[1]; vs control HepG2, read-out: Fold induction by PB201: GSTA1///GSTA2
  fold induction at 1.5 µg/mL: 6.99
[1]; vs control HepG2, read-out: Fold induction by PB201: HMOX1
  fold induction at 1.5 µg/mL: 3.64
[1]; vs control HepG2, read-out: Fold induction by PB201: KYNU
  fold induction at 1.5 µg/mL: 3.9
[1]; vs control HepG2, read-out: Fold induction by PB201: MLLT11
  fold induction at 1.5 µg/mL: 2.71
[1]; vs control HepG2, read-out: Fold induction by PB201: OSGIN1
  fold induction at 1.5 µg/mL: 3.18
[1]; vs control HepG2, read-out: Fold induction by PB201: PANX2
  fold induction at 1.5 µg/mL: 2.88
[1]; vs control HepG2, read-out: Fold induction by PB201: PTGR1
  fold induction at 1.5 µg/mL: 4.79
[1]; vs control HepG2, read-out: Fold induction by PB201: SLC16A6
  fold induction at 1.5 µg/mL: 3.8
[1]; vs control HepG2, read-out: Fold induction by PB201: SQSTM1
  fold induction at 1.5 µg/mL: 2.84
[1]; vs control HepG2, read-out: Fold induction by PB201: SRXN1
  fold induction at 1.5 µg/mL: 2.8
[1]; vs control HepG2, read-out: Fold induction by PB201: TEX19
  fold induction at 1.5 µg/mL: 3
[1]; vs control HepG2, read-out: Fold induction by PB201: TRPV3
  fold induction at 1.5 µg/mL: 3.51
[1]; vs control HepG2, read-out: Fold induction by PB201: TUBA4A
  fold induction at 1.5 µg/mL: 2.55
[2]; A172 human brain cell line, other experiments (FIG. 5)
  Induction of Nrf2-dependent luciferase gene expression: lower, but measurable, induction
[2]; brain cells (A172), this experiment (FIGS. 2-4)
  Nrf2 gene activation and luciferase expression: no activation
[2]; breast cells (AREc32, MCF7), 18 h incubation
  Nrf2 gene activation and luciferase expression: exhibited Nrf2 gene activation and luciferase expression
[2]; kidney cells (293T), 18 h incubation
  Nrf2 gene activation and luciferase expression: exhibited Nrf2 gene activation and luciferase expression
[2]; liver cells (HepG2), 18 h incubation
  Nrf2 gene activation and luciferase expression: exhibited Nrf2 gene activation and luciferase expression
[2]; lung cells (A549; constitutive Nrf2 activation due to mutation)
  Nrf2 gene activation and luciferase expression: lesser activation; also recorded: low or negative response
